Experiments:
[1] = molecular target: Pol-β (Homo sapiens, UniProt P06746); assay: Pol-β-directed strand-displacement synthesis, reconstituted in vitro assay; assay type: biochemical; conditions: 0.5, 1, 2.5 and 5 μM
Procedure: (§1) Lanes 4-7 contained increasing concentrations of NSC-30049 (0.5, 1, 2.5, and 5 μM, respectively). The arrows indicate the positions of the 63-mer substrate and the products. […] Data are representative of three different experiments.

[2] = molecular target: Fen1 (Homo sapiens, UniProt P39748); assay: Fen1 activity in vitro; assay type: biochemical; conditions: 0.5-5 μM; Fen1 1 nM
Procedure: as §1

[3] = molecular target: DNA ligase I (Homo sapiens, UniProt P18858); assay: DNA ligase I activity in vitro; assay type: biochemical; conditions: DNA ligase I 1 nM
Procedure: as §1

[4] = molecular target: APE1 (Homo sapiens, UniProt P27695); assay: fluorescence anisotropy, APE1 binding to AP-site DNA
Excerpt: FIGS. 7A and 7B show the effect of NSC-30049 on the APE1 affinity for AP-lesion containing DNA. […] FIG. 7B is a table showing the apparent Kd values of the data. Values are the mean±SD of triplicate estimations.
The small molecule inhibitor (SMI), NSC-30049, was identified as an inhibitor of APE1 endonuclease activity by molecular docking.

[5] = solubility in water; assay type: physicochemical
[6] = system: Mia-PaCa2; assay: MTT assay, pancreatic cancer cell line; assay type: cell-based, human; conditions: Homo sapiens, MIA PaCa-2; Mia-PaCa2 (dFdC-resistant); single agent; 72 h; read-out: IC50
[7] = system: A172; assay: MTT assay, brain cancer cell line; assay type: cell-based; conditions: Homo sapiens, A 172, 120 h, single agent, read-out: IC50 of NSC-30049
Procedure: (§2) The use of NSC-30049 as a chemopreventive agent for the treatment of brain cancer was also tested. NSC-30049 in combination with temozolomide was administered to brain cancer cell lines, including U118, U138, U87MG, A172, and T98 cell lines (Table 6). Cells were pretreated with the indicated concentrations of NSC-30049 followed by TMZ for 120 h. After treatment, cells were processed for the determination of viability by cell proliferation assay (MTT assay). The data from the graph was used for the determination of IC50, which is presented as the mean±SE of three different estimations. Increasing the concentration of NSC-30049 decreased the IC50 of temozolomide for all cell lines tested, regardless of whether they were MMR proficient or deficient.

[8] = system: T98; assay: MTT assay, brain cancer cell line; assay type: cell-based; conditions: Homo sapiens, T98, 120 h, single agent, read-out: IC50 of NSC-30049
Procedure: as §2

[9] = system: U118; assay: MTT assay, brain cancer cell line; assay type: cell-based; conditions: 120 h, single agent, read-out: IC50 of NSC-30049
Procedure: as §2

[10] = system: U138; assay: MTT assay, brain cancer cell line; assay type: cell-based; conditions: 120 h, single agent, read-out: IC50 of NSC-30049
Procedure: as §2

[11] = system: U87MG; assay: MTT assay, brain cancer cell line; assay type: cell-based; conditions: Homo sapiens, U-87 MG, 120 h, single agent, read-out: IC50 of NSC-30049
Procedure: as §2

[12] = system: MiaPaCa2-Lu tumors; assay: orthotopic MiaPaCa2-Lu tumors in athymic mice, tumor luciferase expression; assay type: in vivo; conditions: combination treatment of NSC-30049 and CDDP
Excerpt: FIG. 8A depicts in situ imaging of orthotopic MiaPaCa2-Lu tumors growing in female athymic (nu/nu) mice.

[13] = system: HCT-116 (MMR deficient) xenograft; assay: xenograft model of colon cancer, tumor volume; assay type: in vivo; conditions: NSC-30049 2.5 mg/kg i.p. + temozolomide 20 mg/kg i.p., day 38
Procedure: (§3) FIG. 10A is a schematic representation of the experimental protocol. […] Data are the mean±SD of four to six animals in each group.
(§4) Xenograft models of colon cancer were used to test the effect of NSC-30049 as a chemopreventive agent when administered in combination with temozolomide. At day 0, the xenograft host was administered with cells from a colon cancer cell line (HCT-116, MMR deficient; HCT-116+ch3, MMR proficient). Thereafter, temozolomide (20 mg/kg body weight; intraperitoneal) and/or NSC-30049 (2.5 mg/kg body weight; intraperitoneal) were administered to the animals. Tumor growth was evaluated at day 38.

[14] = system: HCT-116+ch3 (MMR proficient) xenograft; assay: xenograft model of colon cancer, tumor volume; assay type: in vivo; conditions: NSC-30049 2.5 mg/kg i.p. + temozolomide 20 mg/kg i.p., day 38
Procedure: as §3, §4

[15] = system: Aldh1a1 and Aldh1a7 expression in GBM-L0 stem cells; assay: qRT-PCR of aldehyde dehydrogenase genes in GBM-L0 stem cells; assay type: cell-based; conditions: 36 h
Procedure: Cells were pretreated with 2.5 μM of NSC30049 or 10 or 100 μM TMZ alone or in combination with NSC-30049 for 36 h. Then, total RNA was isolated and processed for gRT-PCR. Data presented are the mean±SE of three different measurements. […] Treatment with NSC-30049 or TMZ reduced the expression of aldehyde dehydrogenase gene Aldh1a7 in GBM-LO stem cell line in vitro, but not treatment with NSC-30049 and TMZ. Cells were pretreated with 2.5 μM of NSC30049 or 10 or 100 μM of TMZ alone or in combination with NSC-30049 for 36 h. Then, total RNA was isolated and processed for qRT-PCR. Data presented are the mean±SE of three different measurements.
Without being bound to a particular theory, the effect of administration of NSC-30049 in combination with temozolomide (TMZ) on the expression of self-renewal marker genes of […] was analyzed. Self-renewal marker genes are highly expressed in colon cancer stem cells compared to human parental cancer cells. qRT-PCR data of CD133+, Oct4, Sox2 and Nanog gene expression levels of GBM-L0 stem cells was obtained (FIG. 14A). Cells were pretreated with 2.5 μM of NSC30049 or 10 or 100 μM of TMZ alone or in combination with NSC-30049 for 36 h. Then, total RNA was isolated and processed for qRT-PCR. Data presented are the mean±SE of three different measurements. […]

APE1, sequence (P27695 whole entry): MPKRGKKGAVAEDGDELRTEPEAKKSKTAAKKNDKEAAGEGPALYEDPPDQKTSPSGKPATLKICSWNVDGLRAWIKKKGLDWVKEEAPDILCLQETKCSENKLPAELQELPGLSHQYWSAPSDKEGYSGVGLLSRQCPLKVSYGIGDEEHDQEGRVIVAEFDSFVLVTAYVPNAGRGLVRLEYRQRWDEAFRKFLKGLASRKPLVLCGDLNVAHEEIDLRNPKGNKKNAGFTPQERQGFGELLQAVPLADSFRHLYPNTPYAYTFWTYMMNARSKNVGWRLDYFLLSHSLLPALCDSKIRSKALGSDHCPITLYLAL
Fen1, sequence (P39748 whole entry, species assumed): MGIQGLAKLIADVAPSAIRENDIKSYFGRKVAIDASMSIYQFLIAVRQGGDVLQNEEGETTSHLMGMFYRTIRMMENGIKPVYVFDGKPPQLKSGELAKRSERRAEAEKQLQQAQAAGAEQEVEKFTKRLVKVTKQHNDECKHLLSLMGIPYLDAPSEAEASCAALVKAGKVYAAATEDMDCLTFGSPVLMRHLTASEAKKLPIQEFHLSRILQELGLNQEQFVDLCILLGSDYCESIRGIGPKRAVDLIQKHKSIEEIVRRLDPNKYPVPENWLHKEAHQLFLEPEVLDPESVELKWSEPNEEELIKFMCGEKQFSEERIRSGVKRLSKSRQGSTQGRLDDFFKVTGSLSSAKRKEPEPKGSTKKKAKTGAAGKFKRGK
DNA ligase I, sequence (P18858 whole entry, species assumed): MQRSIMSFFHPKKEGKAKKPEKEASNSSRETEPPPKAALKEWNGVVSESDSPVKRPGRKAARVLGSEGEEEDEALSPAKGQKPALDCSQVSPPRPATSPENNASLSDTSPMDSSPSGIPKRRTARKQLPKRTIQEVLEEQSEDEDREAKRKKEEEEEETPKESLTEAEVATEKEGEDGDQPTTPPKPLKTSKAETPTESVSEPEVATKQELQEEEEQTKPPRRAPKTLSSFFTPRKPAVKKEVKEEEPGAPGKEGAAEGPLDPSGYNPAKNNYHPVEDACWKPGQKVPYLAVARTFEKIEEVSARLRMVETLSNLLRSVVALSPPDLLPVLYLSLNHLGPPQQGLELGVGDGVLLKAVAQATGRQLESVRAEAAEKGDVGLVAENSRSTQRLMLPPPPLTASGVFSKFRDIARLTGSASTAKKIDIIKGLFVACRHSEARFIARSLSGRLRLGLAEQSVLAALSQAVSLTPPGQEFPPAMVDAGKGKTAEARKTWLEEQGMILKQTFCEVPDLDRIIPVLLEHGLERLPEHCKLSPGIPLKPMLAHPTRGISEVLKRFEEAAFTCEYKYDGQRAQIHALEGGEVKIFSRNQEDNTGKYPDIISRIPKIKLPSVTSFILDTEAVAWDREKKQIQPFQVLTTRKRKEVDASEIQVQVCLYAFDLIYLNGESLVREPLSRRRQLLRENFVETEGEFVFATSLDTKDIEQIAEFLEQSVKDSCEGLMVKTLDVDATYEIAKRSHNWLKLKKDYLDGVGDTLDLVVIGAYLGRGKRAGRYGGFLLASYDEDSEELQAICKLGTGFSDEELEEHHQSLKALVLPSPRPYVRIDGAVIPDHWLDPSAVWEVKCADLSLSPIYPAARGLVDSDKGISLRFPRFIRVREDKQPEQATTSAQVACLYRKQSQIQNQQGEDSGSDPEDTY

ClCC=CC[N+]12CN3CN(CN(C3)C1)C2 [NSC-30049, 1-(4-Chloro-2-butenyl)-1λ˜5˜,3,5,7-tetraazatricyclo[3.3.1.1˜3,7˜]decane]
effect on Pol-β-directed strand-displacement synthesis [1]: did not affect Pol-β-directed strand-displacement synthesis | effect on Fen1 activity [2]: did not affect Fen1 activity | effect on DNA ligase I activity [3]: did not affect DNA ligase I activity | binding of APE1 with AP-site DNA [4]: blocked the binding of APE1 with AP-site DNA in a dose-dependent manner | solubility in water [5]: readily soluble in water | IC50 [6]: 5.12 ± 0.22 µM | IC50 [7]: 6.5 ± 0.3 µM | IC50 [8]: 10.1 ± 0.3 µM | IC50 [9]: 2.6 ± 0.1 µM | IC50 [10]: 2.1 ± 0.1 µM | IC50 [11]: 5.6 ± 1 µM | inhibition of tumor growth (tumor luciferase expression) [12]: synergistic effect on the inhibition of MiaPaCa2-Lu tumor growth | inhibition of tumor growth (tumor volume) [13]: synergistic effect on the inhibition of tumor growth | inhibition of tumor growth (tumor volume) [14]: synergistic effect on the inhibition of tumor growth | expression of Aldh1a1 ([15]; 2.5 μM NSC-30049 + 10 or 100 μM TMZ): significantly inhibited the expression of Aldh1a1 | expression of Aldh1a7 ([15]; agent alone): inhibited

— patent US9517244B2, “Therapeutic combinations for use in neoplasia” (University of Florida Research Foundation, Inc., priority 2011, dated 2016)
